# Reference: article PMC9960331, “Antioxidant and Anticancer Potential of the New Cu(II) Complexes Bearing Imine-Phenolate Ligands with Pendant Amine N-Donor Groups” (Pharmaceutics, 2023)
# Read-outs that look alike come from different tables or passages of the source.
# Legend:
# MCF-7 [1] = assay: Alkaline comet assay, MCF-7; type: cell-based, human; settings: for Damage Índex (DI) ± SD, MCF-7: 3 h
# Description: (§1) For genotoxicity assays, 1.0 × 10^4 cells were seeded on twenty-four-well plates and incubated for 24 h. […] Each dose was evaluated by three independent experiments. The alkaline comet assay was performed as described by Singh et al.. Following treatment, cells were trypsinized and resuspended in a complete medium. Slides were prepared with 20 μL of cellular suspension and were dissolved in 0.75% low melting-point agarose. Slides were immersed in cold lysis buffer (2.5 M NaCl, 100 mM EDTA, 10 mM Tris, 1% Triton X-100, 10% DMSO, pH 10) for at least 1 h. Slides were placed in an electrophoresis chamber with cold alkaline buffer (300 mM NaOH and 1 mM de EDTA, pH > 13) to unwind the DNA. Electrophoresis was performed at 0.7 V/cm, 300 mA for 30 min at 4 °C. Slides were then neutralized with Tris–HCl buffer (pH 7.5) for 15 min and stored at room temperature. Slides were stained with silver staining protocol. The gels were then left to dry overnight at room temperature before being analyzed. From two replicate slides, 100 cells were selected and analyzed for DNA migration. Migration of DNA fragments was determined according to comet class as described by Azqueta: class 0, intact nuclei, without tail; class 1, nuclei with tail less than the diameter of the nucleus; class 2, tail size varying between one and two times the diameter of the nucleus; class 3, tail size varying between two and three times the diameter of the nucleus; and class 4, tail size more than three times the diameter of the nucleus but with the head and tail of the comet still distinguishable. The DI ranges from 0 (100 completely undamaged cells × 0) to 400 (100 cells with maximum damage × 4).
# [2] = ABTS radical cation scavenging assay; type: biochemical
# From the text: (§2) Both colorimetric assays are being used to estimate the radical scavenging capacity of organic and inorganic compounds [71, 72]. When DPPH reacts with an antioxidant compound, its free radical property is lost, and its color changes from violet to yellow. In the presence of an antioxidant, the ABTS radical, which has a strong absorption band at 734 nm, will be scavenged, and the reaction mixture will turn from blue to green. The results are expressed as a percentage of inhibition of DPPH radical or ABTS^+ radical when compared to samples from the control group (DMSO) without the compounds/standard (0% of radical inhibition). The experiment was repeated three times at each concentration.
# The radical cation ABTS was previously generated with sodium persulfate in the presence of potassium phosphate buffer. Briefly, the ABTS solution diluted in a phosphate buffer saline pH 7.4 was mixed with an aliquot of the compound for 30 min at room temperature in the dark. The ascorbic acid at 1, 10, 100, and 200 µM was used as a positive control to determine the maximal decrease in the ABTS^+ absorbance. The color reaction was measured at 730 nm and the results were expressed as a percentage (%) of the control. The ABTS radical scavenging capacity was calculated by the following equation: % ABTS^+ radical scavenging activity = {(A0 − A1)/A0} × 100 where A0 indicates the absorbance of the blank and A1 indicates the absorbance in the presence of the test sample.
# MRC-5 [3] = assay: Clonogenic assay, MRC-5; type: cell-based, human; settings: 72 h treatment; general statement covers MCF-7, SW620 and MRC-5
# Description: (§3) MCF-7, MRC-5, and SW620 human cell lines were seeded in 6-well plates at a density of 300 cells per well containing 1 mL of medium. […] The cell culture medium was changed to a new medium every 2 days. Cells were washed twice with PBS and fixed with methanol for 30 min, followed by staining with 0.5% crystal violet. The assay was performed in triplicate. Colonies were manually counted, and colony survival was presented as a percentage relative to the respective negative control.
# [4] = test system: SW620 (colorectal adenocarcinoma); assay: MTT cell viability assay, SW620; type: cell-based, human; settings: for Concentration at which cytotoxicity starts, SW620: 24 h and 72 h; for IC50: Homo sapiens
# Description: (§4) Chinese hamster lung fibroblast (V79) cells and human cell lines [MCF-7 (breast adenocarcinoma), SW620 (colorectal adenocarcinoma), and MRC-5 (normal lung fibroblast)] were obtained from the Rio de Janeiro Cell Bank (Rio de Janeiro, RJ, Brazil). The cell lines were grown in DMEM supplemented with 10% heat-inactivated FBS or RPMI-1640 supplemented with 20% FBS, 0.2 mg/mL L-glutamine, 100 IU/mL penicillin, and 100 µg/mL streptomycin. Cells were kept in tissue culture flasks at 37 °C in a humidified atmosphere containing 5% CO2 and were harvested by treatment with 0.15% trypsin −0.08% EDTA in PBS.
# (§5) The cytotoxic potential of all compounds was measured by the methylthiazol tetrazolium (MTT) assay in Chinese hamster lung fibroblasts and human cell lines. Cell lines were cultured in a 96-well plate (1 × 10^4 cells/well) in complete media. V79 cells were treated for 24 h with all compounds at concentrations of 1, 10, 50 and100 µM. […] All compounds were dissolved in DMSO and added to the medium to reach the desired concentrations (0.1% of DMSO). The activity of this solvent alone was measured by a blank sample solution containing the same amount of DMSO. After the exposure period, the culture media were replaced with the addition of 100 µL serum-free media containing the 3-(4,5-dimethylthiazol-2-yl)-2,5-diphenyltetrazolium bromide) (MTT) dye (1 mg/mL), and incubated for 3 h at 37 °C After incubation, the supernatant was removed, the residual purple formazan product was solubilized in 150 µL DMSO, and its absorbance was measured at 570 nm. The assay was performed in triplicate.
# [5] = test system: MCF-7 (breast adenocarcinoma); assay: MTT cell viability assay, MCF-7; type: cell-based, human; settings: for Concentration at which cytotoxicity starts, MCF-7: 24 h and 72 h; for IC50: Homo sapiens
# Description: as §4, §5
# [6] = test system: MRC-5 (normal lung fibroblast); assay: MTT cell viability assay, MRC-5; type: cell-based, human; settings: for Concentration at which cytotoxicity starts, MRC-5: 24 h and 72 h; for IC50: Homo sapiens
# Description: as §4, §5
# MRC-5 [7] = assay: Alkaline comet assay, MRC-5; type: cell-based, human; settings: for Damage Índex (DI) ± SD, MRC-5: 3 h
# Description: as §1
# SW620 [8] = assay: Alkaline comet assay, SW620; type: cell-based, human; settings: for Damage Índex (DI) ± SD, SW620: 3 h
# Description: as §1
# [9] = DPPH radical scavenging assay; type: biochemical; settings: for Antioxidant ability in the DPPH radical capture assay: test doses 1-200 µM
# From the text: as §2
# DPPH assay: To determine the 1,1-diphenylpicrylhydrazyl (DPPH) radical scavenging activity, different concentrations of compounds (1, 5, 10, 50, 100, and 200 μM) were mixed with a methanolic solution of 0.1 mM DPPH radical for 30 min at 30 °C in the dark. The absorbance of the mixture was measured spectrophotometrically at 517 nm. The coloration change of the DPPH ethanolic solution from deep purple to yellow indicates the presence of antioxidants and then the free radical scavenging effect of these compounds. The ascorbic acid at 1, 10, 100, and 200 µM was used as a positive control to determine the maximal decrease in the DPPH absorbance. The percentage of DPPH radical scavenging activity was calculated by the following equation:% DPPH radical scavenging activity = {(A0 − A1)/A0} × 100 where A0 is the absorbance of the control, and A1 is the absorbance of the compounds/standard.
# SW620 [10] = assay: Clonogenic assay, SW620; type: cell-based, human; settings: 72 h treatment
# Description: as §3
# V79 cells = assay: MTT cell viability assay, V79 cells; type: cell-based, Chinese hamster; settings: Cricetulus griseus, V79, 24 h; read-out: IC50 V79 cell line
# Description: as §4
# The cytotoxic potential of all compounds was measured by the methylthiazol tetrazolium (MTT) assay in Chinese hamster lung fibroblasts and human cell lines. Cell lines were cultured in a 96-well plate (1 × 10^4 cells/well) in complete media. […] The activity of this solvent alone was measured by a blank sample solution containing the same amount of DMSO. After the exposure period, the culture media were replaced with the addition of 100 µL serum-free media containing the 3-(4,5-dimethylthiazol-2-yl)-2,5-diphenyltetrazolium bromide) (MTT) dye (1 mg/mL), and incubated for 3 h at 37 °C After incubation, the supernatant was removed, the residual purple formazan product was solubilized in 150 µL DMSO, and its absorbance was measured at 570 nm. […]
# [11] = test system: MCF-7 (breast adenocarcinoma); design: method as in PMID 36592511; settings: 72 h; cited from earlier work
# [12] = test system: SW620 (colorectal adenocarcinoma); settings: 72 h; cited from earlier work
# MCF-7 [13] = assay: Clonogenic assay, MCF-7; type: cell-based, human; settings: 72 h treatment
# Description: as §3
SMILES,"Concentrations that increase damage index (DI), MCF-7 (MCF-7 [1])","Damage Índex (DI) ± SD, MCF-7 (MCF-7 [1]; 1 μM)","Damage Índex (DI) ± SD, MCF-7 (MCF-7 [1]; 10 μM)","Damage Índex (DI) ± SD, MCF-7 (MCF-7 [1]; 50 μM)","Damage Índex (DI) ± SD, MCF-7 (MCF-7 [1]; 100 μM)","Concentration at which cytotoxicity starts, SW620 [4]","IC50 ([4]; SW-620, 24 h)","IC50 ([4]; SW-620, 72 h)","Concentration at which cytotoxicity starts, MCF-7 [5]","IC50 ([5]; MCF7, 24 h)","IC50 ([5]; MCF7, 72 h)","Concentration at which cytotoxicity starts, MRC-5 [6]","IC50 ([6]; MRC5, 24 h)","IC50 ([6]; MRC5, 72 h)","Concentrations that increase damage index (DI), MRC-5 (MRC-5 [7])","Damage Índex (DI) ± SD, MRC-5 (MRC-5 [7]; 1 μM)","Damage Índex (DI) ± SD, MRC-5 (MRC-5 [7]; 10 μM)","Damage Índex (DI) ± SD, MRC-5 (MRC-5 [7]; 50 μM)","Damage Índex (DI) ± SD, MRC-5 (MRC-5 [7]; 100 μM)","Concentrations that increase damage index (DI), SW620 (SW620 [8])",further results
"CC(C)(C)c1cc(/C=N/c2cccc3cccnc23)c(O)c(C(C)(C)C)c1 [1b, [6-(C9H6N-8-(N=CH))-2,4-di-tert-butyl-(OHC6H2)]]",50 µM and 100 µM,16.0 ± 4.0,22.3 ± 6.4,52.7 ± 9.5,102.0 ± 6.0,1 µM,41.9 ± 9.7 µM,10.5 µM,10 µM,111 ± 9.5 µM,44.5 µM,10 µM,63.4 ± 5.5 µM,15.5 µM,50 µM and 100 µM,16.3 ± 2.5,20.0 ± 5.2,101.0 ± 5.0,135.0 ± 6.2,≥ 10 µM,"ABTS+ radical scavenging activity ([2]; doses 1-200 µM): inactive at all doses; Inhibition of cell proliferation at the highest treatment concentrations tested (colony survival) (MRC-5 [3]): not statistically significant; Damage Índex (DI) ± SD, SW620 (SW620 [8]; 1 μM): 10.0 ± 1.0; Damage Índex (DI) ± SD, SW620 (SW620 [8]; 10 μM): 34.7 ± 7.4; Damage Índex (DI) ± SD, SW620 (SW620 [8]; 50 μM): 120.0 ± 5.3; Damage Índex (DI) ± SD, SW620 (SW620 [8]; 100 μM): 236.0 ± 8.2; Antioxidant ability in the DPPH radical capture assay [9]: inability to be antioxidants; Inhibition of colony survival, SW620 compared with MRC-5 (SW620 [10]): more potent inhibitory effect on the SW620 cells than on MRC-5 cells; IC50 (V79 cells): 69 ± 9 µM"
"O=C1O[C@H]([C@@H](O)CO)C(O)=C1O [Ascorbic acid, ascorbic acid, reference compound]",–,–,–,–,–,–,–,–,–,–,–,–,–,–,–,–,–,–,–,–,IC50 ([9]; concentration to decrease 50% of DPPH radical formation): 17 µM
N.N.[Cl][Pt][Cl] [cisplatin],–,–,–,–,–,–,–,–,–,–,–,–,–,–,–,–,–,–,–,–,IC50 [11]: 12.7 ± 0.1 µM
O=c1[nH]cc(F)c(=O)[nH]1 [5-Fluorouracil],–,–,–,–,–,–,–,–,–,–,–,–,–,–,–,–,–,–,–,–,IC50 [12]: 4 µM
CC(C)(C)c1cc(/C=N/CCNc2ccccc2)c(O)c(C(C)(C)C)c1 [1a],10 to 100 µM,14.7 ± 3.2,34.3 ± 4.2,100.7 ± 2.9,154.7 ± 7.2,10 µM,27.6 ± 1.2 µM,16.4 µM,10 µM,30.5 ± 4.4 µM,28.6 µM,10 µM,14.7 ± 1.1 µM,17.1 µM,10 to 100 µM,19.3 ± 3.9,39.7 ± 9.5,121.3 ± 10.0,200.3 ± 22.0,50 µM and 100 µM,"Inhibition of colony survival, MCF-7 compared with MRC-5 (MCF-7 [13]): not selective; Concentration from which ABTS+ radical scavenging activity is present [2]: 5 µM; Imax (% of maximal inhibition), ABTS+ [2]: up to 87%; IC50 ([2]; concentration to decrease 50% of ABTS+ radical formation): 7.5 ± 2.2 µM; Damage Índex (DI) ± SD, SW620 (SW620 [8]; 1 μM): 16.7 ± 2.5; Damage Índex (DI) ± SD, SW620 (SW620 [8]; 10 μM): 21.3 ± 6.7; Damage Índex (DI) ± SD, SW620 (SW620 [8]; 50 μM): 107.0 ± 7.2; Damage Índex (DI) ± SD, SW620 (SW620 [8]; 100 μM): 212.3 ± 2.5; Antioxidant ability in the DPPH radical capture assay [9]: inability to be antioxidants; Inhibition of colony survival, SW620 compared with MRC-5 (SW620 [10]): not selective; IC50 (V79 cells): 23 µM"
